The values that follow come from BindingDB's records for doi:10.3109/14756360902888200 (Chung Shan Medical University Hospital, 2010).

Carboxylic ester hydrolase, sequence (Q9N1N9 whole entry): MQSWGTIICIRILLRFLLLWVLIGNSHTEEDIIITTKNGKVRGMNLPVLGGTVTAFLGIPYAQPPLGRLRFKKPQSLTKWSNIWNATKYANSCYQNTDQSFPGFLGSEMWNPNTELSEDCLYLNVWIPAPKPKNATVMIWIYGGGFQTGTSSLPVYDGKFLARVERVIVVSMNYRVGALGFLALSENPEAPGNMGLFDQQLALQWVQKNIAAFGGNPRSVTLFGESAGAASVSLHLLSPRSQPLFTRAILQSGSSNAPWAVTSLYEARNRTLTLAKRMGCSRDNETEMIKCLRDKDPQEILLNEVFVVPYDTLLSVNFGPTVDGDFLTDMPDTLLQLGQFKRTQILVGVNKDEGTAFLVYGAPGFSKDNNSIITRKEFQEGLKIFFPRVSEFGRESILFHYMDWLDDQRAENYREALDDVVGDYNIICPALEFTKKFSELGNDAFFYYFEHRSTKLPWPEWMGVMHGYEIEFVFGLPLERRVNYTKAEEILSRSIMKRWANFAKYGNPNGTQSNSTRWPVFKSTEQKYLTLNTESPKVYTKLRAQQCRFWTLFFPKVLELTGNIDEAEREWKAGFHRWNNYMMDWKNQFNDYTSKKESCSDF

The test addresses Carboxylic ester hydrolase (Equus caballus, UniProt Q9N1N9). The test is described as follows: BChE Inhibition Assay. Particulars: pH 7; 25 °C. As to the method:
BChE inhibitions by the carbamate inhibitors were assayed by the Ellman method [Ellman et al., Biochem. Pharm., 7:88-95]. BChE-catalyzed hydrolysis of BTCh in the presence of the carbamate inhibitors and DTNB was followed continuously at 410 nm on a UV-visible spectrometer. The temperature was maintained at 25.0°C by a refrigerated circulating water bath. All inhibition reactions were performed in sodium phosphate buffer (1 mL, 0.1 M, pH 7.0) containing NaCl (0.1 M), acetonitrile (2% by volume), triton X-100 (0.5% by weight), substrate (ATCh for AChE or BTCh for BChE) (50 μM), DTNB, and varying concentrations of inhibitor. Requisite volumes of stock solution of substrateand inhibitors in acetonitrile were injected into the reaction buffer via a pipet. BChE was dissolved in sodium phosphate buffer (0.1 M, pH 7.0).
What is called Ki is the dissociation constant of the complex between target and ligand, obtained from inhibition or displacement. In the case of `CCCCNC(=O)OC1CC2CCC1C2` [(R)-(+)-exo-2-norbonyl-N-n-butylcarbamate], the Ki came to 0.011 µM.

`CCCCNC(=O)OC1CC2CCC1C2` [(S)-(-)-endo-2-norbornyl-N-n-butylcarbamate]: the affinity, expressed as Ki, was 0.002 µM.

Turning to `CCCCNC(=O)OC1CC2CCC1C2` [(S)-(-)-exo-2-norbonyl-N-n-butylcarbamate], the affinity, expressed as Ki, was 0.05 µM.
